According to PMC8312697, “Mechanistic Investigations Support Liver Safety of Ubrogepant” (Toxicological Sciences, 2020):
Like-named read-outs stand apart in the source and are kept apart here.

Columns and labels:
[1] = tested on: rats; assay: Conventional nonclinical toxicology study, rat; type: in vivo
Description: Conventional animal toxicology studies in rats and monkeys were performed by Merck & Co, Inc (West Point, Pennsylvania).

[2] = tested on: clinical trial participants; parameters: cases of ALT or AST ≥ 3× ULN: unit not given here; settings: cited from earlier work
[3] = tested on: HepG2 cells; assay: Seahorse cellular respiration assay (OCR); type: cell-based, human
Description: Identical parallel cultures were established to test for an effect on cytotoxicity via cellular ATP content. […]. Importantly, the 1-hour culture was conducted in the absence of serum (i.e., no serum protein binding) as is standard for the Seahorse Analyzer assay conditions. However, the 24-hour culture was too long for robust cell culture in the absence of serum. Serum was present up to 1 hour before the assay, when cell culture media was exchanged for the standard assay media. Three independent studies were conducted in duplicate.
To assess the potential mitochondrial liabilities of ubrogepant, cellular respiration assays using a Seahorse XFe96 Flux Analyzer were conducted by Cyprotex (Macclesfield, UK). HepG2 cells were incubated with ubrogepant at concentrations ranging from 0.1 – 125 μM for 1 or 24 hours and tested for an effect on cellular respiration as measured by the oxygen consumption rate (OCR). Three independent studies were conducted in duplicate. Importantly, the 1-hour culture was conducted in the absence of serum (i.e., no serum protein binding) as is standard for the Seahorse Analyzer assay conditions. However, the 24-hour culture was too long for robust cell culture in the absence of serum. Serum was present up to 1 hour before the assay, when cell culture media was exchanged for the standard assay media. The measured OCR was corrected for the relative amounts of viable cells that contributed to the measured OCR, removing the possible interpretation of OCR reductions as being due to cell loss.
To assess the potential mitochondrial liabilities of MK-3207, cellular respiration assays using a Seahorse XFe96 Flux Analyzer were conducted by Cyprotex (Macclesfield, UK). HepG2 cells were incubated with MK-3207 at concentrations ranging from 0.01 – 75 μM for 1 or 24 hours and tested for an effect on cellular respiration as measured by the OCR. Three independent studies were conducted in duplicate. Importantly, the 1-hour culture was conducted in the absence of serum (i.e., no serum protein binding) as is standard for the Seahorse Analyzer assay conditions. However, the 24-hour culture was too long for robust cell culture in the absence of serum. Serum was present up to 1 hour before the assay, when cell culture media was exchanged for the standard assay media. Intracellular MK-3207 concentrations were also assessed in identical duplicate HepG2 cultures. The measured OCR was corrected for the relative amounts of viable cells that contributed to the measured OCR, removing the possible interpretation of OCR reductions as being due to cell loss; the process for this was the same as that described above for ubrogepant.

[4] = tested on: mouse; assay: Conventional nonclinical toxicology study, mouse
[5] = among the 5 patients with ALT > 3-fold ULN at > 500 mg daily, ref Hargreaves and Olesen, 2019, Hewitt et al., 2011
[6] = HepG2, 1-hour incubation, no serum

Question: What does the source list for `O=C(CN1C(=O)C2(CCCC2)NC[C@H]1c1cc(F)cc(F)c1)Nc1ccc2c(c1)C[C@@]1(C2)C(=O)Nc2ncccc21` [MK-3207]?
Answer: Pivotal conventional nonclinical toxicology study liver findings ([1]; 6M rat): no liver safety signal; exposure margin ([1]; 6M rat): 25 ×; patients symptomatic with Hy’s law [2, 5]: 1; patients with > 20-fold ALT rises [2, 5]: 3; Clinical ALT > 3× ULN ([2]; daily doses > 500 mg, individuals dosed for more than 1 week, most responding given 600–900 mg per day, ref Hargreaves and Olesen, 2019, Hewitt et al., 2011): 42% (5/12) among individuals dosed for more than 1 week; most responding were given 600–900 mg per day; ALT > 3-fold ULN after 2 weeks ([2]; daily doses of < 100 mg, ref Hargreaves and Olesen, 2019, Hewitt et al., 2011): 1%; effect on oxygen consumption rate (OCR) [3, 6]: mildly inhibit cellular respiration; effect on oxygen consumption rate (OCR) ([3]; HepG2, 24-hour incubation): mildly inhibit cellular respiration; Pivotal conventional nonclinical toxicology study liver findings ([4]; 6M mouse): no liver safety signal; exposure margin ([4]; 6M mouse): 12 ×

Question: Which “Pivotal conventional nonclinical toxicology study liver findings” value ([1]; 3M rat) does the source give for `O=C(N[C@@H]1CC[C@@H](c2cccc(F)c2F)CN(CC(F)(F)F)C1=O)N1CCC(n2c(=O)[nH]c3ncccc32)CC1` [Telcagepant] here?
Answer: < 3× ALT/AST with no liver histopathology

Question: What about the exposure margin ([1]; 3M rat) of the same molecule?
Answer: 15 ×

Question: And the “Pivotal conventional nonclinical toxicology study liver findings” value ([1]; 6M rat)?
Answer: no liver safety signal

Question: And the exposure margin ([1]; 6M rat)?
Answer: 7 ×

Question: And the “Clinical ALT > 3× ULN” value ([2]; 140 mg BID 12 weeks, ref Ho et al., 2014)?
Answer: 1.9% (5/258) ([Ho et al., 2014])

Question: What about the “Clinical ALT > 3× ULN” value ([2]; 140 mg BID 12 weeks, ref Ho et al., 2014, listed as telcagepant) of the same molecule?
Answer: 1.9%

Question: What about the “Clinical ALT > 3× ULN” value ([2]; 280 mg BID 12 weeks, ref Ho et al., 2014) of the same molecule?
Answer: 3.2%

Question: What about the “effect on oxygen consumption rate (OCR)” value [3, 6] of the same molecule?
Answer: inhibit the HepG2 OCR in a dose-dependent manner

Question: What about the “effect on oxygen consumption rate (OCR)” value ([3]; HepG2, 24-hour incubation) of the same molecule?
Answer: A similar OCR response

Question: And the “Pivotal conventional nonclinical toxicology study liver findings” value ([4]; 6M mouse)?
Answer: < 2× ALT/AST with no liver histopathology

Question: And the exposure margin ([4]; 6M mouse)?
Answer: 14 ×

Question: With `C[C@@H]1[C@H](c2ccccc2)C[C@H](NC(=O)c2cnc3c(c2)C[C@@]2(C3)C(=O)Nc3ncccc32)C(=O)N1CC(F)(F)F` [Ubrogepant] as the molecule, how does the “Pivotal conventional nonclinical toxicology study liver findings” value ([1]; 6M rat) read?
Answer: < 2× ALT with no liver histopathology

Question: What about the exposure margin ([1]; 6M rat) of the same molecule?
Answer: 70 ×

Question: And the “ALT/AST ≥ 3-fold ULN, number of participants” value ([2]; 100 mg QD 2 days on, 2 days placebo, alternating, 8 weeks, healthy adults, n = 256, ref Goadsby et al., 2019)?
Answer: 2

Question: And the “cases of ALT or AST ≥ 3× ULN” value ([2]; 52-week long-term extension trial, 1230 people, ref Ailani et al., 2019)?
Answer: 20

Question: And the “effect on oxygen consumption rate (OCR)” value [3, 6]?
Answer: not after a 1-hour incubation

Question: And the “effect on oxygen consumption rate (OCR)” value ([3]; HepG2, 24-hour incubation)?
Answer: inhibit the HepG2 OCR in a dose-dependent manner

Question: And the “Pivotal conventional nonclinical toxicology study liver findings” value ([4]; 3M mouse)?
Answer: no liver safety signal

Question: What about the exposure margin ([4]; 3M mouse) of the same molecule?
Answer: 80 ×
